From ChEMBL document CHEMBL1139656, “Aminoalkyl phenyl sulfones--a novel series of 5-HT7 receptor ligands” (Bioorg Med Chem Lett, 2006) come the findings set out here.

Assay [1] has as its target T1, 5-hydroxytryptamine receptor 7 (Homo sapiens, UniProt P34969). The assay is described as follows: Displacement of [3H]5-HT from the cloned human 5-HT7 receptor expressed in CHO cells. Format: cell-based. On the technique in general: In a radioligand displacement assay an active substance lowers the binding of a labelled ligand.
For assay [2], the target named is T2, 5-hydroxytryptamine receptor 1A (Homo sapiens, UniProt P08908).
T2 sequence (P08908 whole entry): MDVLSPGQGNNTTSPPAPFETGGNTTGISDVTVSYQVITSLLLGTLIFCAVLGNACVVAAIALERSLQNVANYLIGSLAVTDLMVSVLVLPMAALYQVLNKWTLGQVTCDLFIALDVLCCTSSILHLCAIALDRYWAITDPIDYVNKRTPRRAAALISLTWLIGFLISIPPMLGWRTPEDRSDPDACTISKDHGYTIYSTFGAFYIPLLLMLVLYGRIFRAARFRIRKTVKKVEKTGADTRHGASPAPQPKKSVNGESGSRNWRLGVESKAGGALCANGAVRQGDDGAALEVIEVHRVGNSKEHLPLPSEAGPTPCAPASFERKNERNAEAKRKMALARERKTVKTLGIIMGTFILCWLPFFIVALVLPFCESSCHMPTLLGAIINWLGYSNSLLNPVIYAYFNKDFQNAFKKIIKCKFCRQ
The assay is described as follows: Displacement of [3H]5-HT from the cloned human 5-HT1A receptor expressed in HeLa cells. Format: cell-based.

Assay [3] has as its target 5-hydroxytryptamine receptor 2A (Homo sapiens, UniProt P28223). Description: Displacement of [3H]ketanserin from the cloned human 5-HT2A receptor expressed in CHO cells. Format: cell-based.
The target of assay [4] is T1, 5-hydroxytryptamine receptor 7. The assay is described as follows: Activity towards human 5-HT7 receptor at 10 uM relative to 5-CT. It is filed as functional.
The target of assay [5] is 5-hydroxytryptamine receptor 1B (Homo sapiens, UniProt P28222). The assay is described as follows: Displacement of [3H]5-HT from the cloned human 5-HT1B receptor expressed in CHO cells. It is filed as cell-based.
A further assay concerns the target D(2) dopamine receptor (Homo sapiens, UniProt P14416). Description: Displacement of [3H]spiperone from the cloned human D2 receptor expressed in CHO cells. It is filed as cell-based.
The target in assay [6] is T3, Adrenergic receptor alpha-1 (Rattus norvegicus, UniProt P15823+P23944+P43140).
T3 sequence (P15823 whole entry): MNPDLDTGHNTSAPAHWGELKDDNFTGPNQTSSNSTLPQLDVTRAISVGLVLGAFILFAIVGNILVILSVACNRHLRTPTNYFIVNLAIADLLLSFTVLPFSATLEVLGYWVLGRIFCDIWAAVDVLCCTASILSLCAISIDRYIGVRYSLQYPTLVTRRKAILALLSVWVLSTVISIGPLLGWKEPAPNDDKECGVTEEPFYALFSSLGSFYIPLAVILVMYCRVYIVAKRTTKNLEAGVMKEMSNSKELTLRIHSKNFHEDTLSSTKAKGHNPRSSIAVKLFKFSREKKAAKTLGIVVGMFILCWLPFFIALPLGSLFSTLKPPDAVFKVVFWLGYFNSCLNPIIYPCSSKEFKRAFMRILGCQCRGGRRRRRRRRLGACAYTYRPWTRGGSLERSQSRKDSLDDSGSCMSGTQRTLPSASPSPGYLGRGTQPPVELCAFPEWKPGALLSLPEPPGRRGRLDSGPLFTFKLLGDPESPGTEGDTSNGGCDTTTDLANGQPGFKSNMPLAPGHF
T3 sequence (P23944 whole entry): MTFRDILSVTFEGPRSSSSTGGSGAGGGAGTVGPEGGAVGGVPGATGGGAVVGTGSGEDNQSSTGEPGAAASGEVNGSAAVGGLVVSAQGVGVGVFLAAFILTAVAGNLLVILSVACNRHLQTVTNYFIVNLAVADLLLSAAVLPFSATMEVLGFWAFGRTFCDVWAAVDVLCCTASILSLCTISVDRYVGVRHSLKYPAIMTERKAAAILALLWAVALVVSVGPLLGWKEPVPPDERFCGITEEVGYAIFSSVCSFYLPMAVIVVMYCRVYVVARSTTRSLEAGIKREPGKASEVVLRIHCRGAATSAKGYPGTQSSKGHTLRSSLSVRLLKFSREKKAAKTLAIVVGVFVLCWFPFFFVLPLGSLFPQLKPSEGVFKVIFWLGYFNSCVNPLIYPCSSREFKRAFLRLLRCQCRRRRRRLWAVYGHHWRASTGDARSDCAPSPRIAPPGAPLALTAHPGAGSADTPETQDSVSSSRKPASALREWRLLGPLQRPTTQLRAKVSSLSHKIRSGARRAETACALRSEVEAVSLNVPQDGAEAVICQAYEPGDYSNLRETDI
T3 sequence (P43140 whole entry): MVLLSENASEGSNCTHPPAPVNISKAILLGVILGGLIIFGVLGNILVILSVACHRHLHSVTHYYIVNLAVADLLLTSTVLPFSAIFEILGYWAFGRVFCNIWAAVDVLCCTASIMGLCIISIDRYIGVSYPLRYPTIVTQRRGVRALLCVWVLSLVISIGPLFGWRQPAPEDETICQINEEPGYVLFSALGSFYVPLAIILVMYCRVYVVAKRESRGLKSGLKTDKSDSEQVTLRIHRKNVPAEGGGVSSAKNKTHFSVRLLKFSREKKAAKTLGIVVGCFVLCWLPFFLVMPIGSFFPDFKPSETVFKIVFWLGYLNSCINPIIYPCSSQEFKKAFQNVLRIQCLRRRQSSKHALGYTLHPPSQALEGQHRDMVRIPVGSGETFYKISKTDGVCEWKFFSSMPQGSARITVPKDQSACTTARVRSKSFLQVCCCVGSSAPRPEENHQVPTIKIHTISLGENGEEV
The assay is described as follows: Displacement of [3H]prazosin from alpha-1 adrenergic receptor in rat cortex.

In assay [7] the target is Voltage-gated inwardly rectifying potassium channel KCNH2 (Homo sapiens, UniProt Q12809). The assay is described as follows: Displacement of [35S]-labeled MK-499 from cloned human ERG receptor expressed in HEK cells. It is filed as cell-based, HEK293.
Voltage-gated inwardly rectifying potassium channel KCNH2, sequence (Q12809 whole entry): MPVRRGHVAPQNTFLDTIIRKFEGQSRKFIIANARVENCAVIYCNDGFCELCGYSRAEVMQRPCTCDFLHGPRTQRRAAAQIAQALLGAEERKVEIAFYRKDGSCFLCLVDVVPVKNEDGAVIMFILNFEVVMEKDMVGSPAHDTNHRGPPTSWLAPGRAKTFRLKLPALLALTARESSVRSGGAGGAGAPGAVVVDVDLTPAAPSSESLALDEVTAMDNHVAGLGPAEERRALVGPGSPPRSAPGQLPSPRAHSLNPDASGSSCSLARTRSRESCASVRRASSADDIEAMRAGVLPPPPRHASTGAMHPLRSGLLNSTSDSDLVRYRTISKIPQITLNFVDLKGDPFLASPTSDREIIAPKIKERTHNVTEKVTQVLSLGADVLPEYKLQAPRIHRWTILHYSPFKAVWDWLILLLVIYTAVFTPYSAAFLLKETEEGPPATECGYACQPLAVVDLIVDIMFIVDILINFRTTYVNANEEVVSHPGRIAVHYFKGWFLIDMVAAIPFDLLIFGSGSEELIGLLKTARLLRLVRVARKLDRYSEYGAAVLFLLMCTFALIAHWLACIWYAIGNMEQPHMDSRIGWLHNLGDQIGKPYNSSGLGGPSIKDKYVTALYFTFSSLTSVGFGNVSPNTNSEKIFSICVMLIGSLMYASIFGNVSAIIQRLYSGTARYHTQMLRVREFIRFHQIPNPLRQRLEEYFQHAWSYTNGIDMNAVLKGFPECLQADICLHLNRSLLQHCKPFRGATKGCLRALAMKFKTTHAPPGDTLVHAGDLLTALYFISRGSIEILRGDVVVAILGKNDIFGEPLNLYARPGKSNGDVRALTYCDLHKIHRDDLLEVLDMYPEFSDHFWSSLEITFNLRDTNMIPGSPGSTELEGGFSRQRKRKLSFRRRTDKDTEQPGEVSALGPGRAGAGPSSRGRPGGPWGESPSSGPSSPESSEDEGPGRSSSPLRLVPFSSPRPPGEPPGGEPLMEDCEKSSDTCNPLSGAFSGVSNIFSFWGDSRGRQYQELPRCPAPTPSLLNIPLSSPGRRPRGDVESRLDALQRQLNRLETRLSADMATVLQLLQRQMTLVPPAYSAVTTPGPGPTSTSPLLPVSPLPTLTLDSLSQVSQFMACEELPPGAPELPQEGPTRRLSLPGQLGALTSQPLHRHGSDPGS

D(2) dopamine receptor, sequence (P14416 whole entry): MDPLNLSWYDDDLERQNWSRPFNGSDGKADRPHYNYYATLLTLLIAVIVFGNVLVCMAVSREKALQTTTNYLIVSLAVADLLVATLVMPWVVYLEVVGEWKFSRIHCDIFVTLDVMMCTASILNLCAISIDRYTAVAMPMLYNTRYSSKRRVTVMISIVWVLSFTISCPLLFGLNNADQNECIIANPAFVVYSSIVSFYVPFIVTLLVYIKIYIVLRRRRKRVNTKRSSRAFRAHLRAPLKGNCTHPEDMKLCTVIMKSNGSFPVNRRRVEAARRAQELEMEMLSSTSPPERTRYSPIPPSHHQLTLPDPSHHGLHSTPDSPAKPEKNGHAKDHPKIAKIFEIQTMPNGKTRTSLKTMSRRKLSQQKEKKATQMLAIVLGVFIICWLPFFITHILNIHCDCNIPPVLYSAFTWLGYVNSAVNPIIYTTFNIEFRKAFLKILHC
5-hydroxytryptamine receptor 1B, sequence (P28222 whole entry): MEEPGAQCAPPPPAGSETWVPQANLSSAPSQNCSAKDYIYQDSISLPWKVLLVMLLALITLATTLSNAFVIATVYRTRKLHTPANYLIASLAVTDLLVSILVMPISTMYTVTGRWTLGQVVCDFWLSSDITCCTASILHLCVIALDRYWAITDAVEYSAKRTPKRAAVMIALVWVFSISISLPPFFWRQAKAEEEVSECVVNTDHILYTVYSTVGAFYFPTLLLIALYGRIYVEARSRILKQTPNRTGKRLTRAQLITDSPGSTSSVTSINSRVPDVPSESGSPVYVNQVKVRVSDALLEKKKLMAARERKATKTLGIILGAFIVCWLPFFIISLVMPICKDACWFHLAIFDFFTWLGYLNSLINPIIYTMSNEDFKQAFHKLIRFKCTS
T1 sequence (P34969 whole entry): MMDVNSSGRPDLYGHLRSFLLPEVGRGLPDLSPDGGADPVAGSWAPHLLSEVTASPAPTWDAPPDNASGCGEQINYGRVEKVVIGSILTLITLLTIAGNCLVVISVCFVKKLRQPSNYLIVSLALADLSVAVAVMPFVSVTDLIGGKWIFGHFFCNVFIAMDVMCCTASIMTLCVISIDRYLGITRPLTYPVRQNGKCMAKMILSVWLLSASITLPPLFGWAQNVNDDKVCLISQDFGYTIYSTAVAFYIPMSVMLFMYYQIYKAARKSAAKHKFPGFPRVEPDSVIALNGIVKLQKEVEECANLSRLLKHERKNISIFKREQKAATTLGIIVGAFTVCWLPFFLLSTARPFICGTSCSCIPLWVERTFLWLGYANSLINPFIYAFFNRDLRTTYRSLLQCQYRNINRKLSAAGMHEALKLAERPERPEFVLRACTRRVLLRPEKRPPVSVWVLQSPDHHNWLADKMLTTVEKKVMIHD
5-hydroxytryptamine receptor 2A, sequence (P28223 whole entry): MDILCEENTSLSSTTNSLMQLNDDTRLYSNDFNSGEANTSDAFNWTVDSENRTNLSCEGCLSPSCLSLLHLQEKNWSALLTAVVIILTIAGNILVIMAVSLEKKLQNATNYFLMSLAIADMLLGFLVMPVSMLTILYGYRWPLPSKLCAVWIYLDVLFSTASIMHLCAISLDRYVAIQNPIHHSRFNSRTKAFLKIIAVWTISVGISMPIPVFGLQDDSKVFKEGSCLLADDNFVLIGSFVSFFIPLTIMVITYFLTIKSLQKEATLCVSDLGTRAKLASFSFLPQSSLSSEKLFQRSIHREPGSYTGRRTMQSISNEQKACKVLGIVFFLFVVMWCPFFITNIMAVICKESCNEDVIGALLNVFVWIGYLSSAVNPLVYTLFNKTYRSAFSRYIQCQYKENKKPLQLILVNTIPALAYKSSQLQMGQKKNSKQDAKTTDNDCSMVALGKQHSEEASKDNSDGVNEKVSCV

Regarding `CC(C)(CCCN1CCCC(c2cnco2)C1)S(=O)(=O)c1ccccc1` (racemic), the Ki in assay [1] is 15 nM; in assay [2] it was > 7000 nM; in assay [3], > 1000 nM; in assay [5], > 5000 nM; at D(2) dopamine receptor, 1500 nM; in assay [6], > 4000 nM⁻¹. The Ki in assay [7] is > 8000 nM. For the same molecule, the Activity in assay [4] came to 12%.
`O=S(=O)(c1ccccc1)C1(CCCN2CCOCC2)CCC1`: the Ki in assay [1] is > 7000 nM.
As for `CC1CCN(CCCC2(S(=O)(=O)c3ccccc3)CCC2)CC1`, the Ki in assay [1] came to 550 nM.
In the case of `O=S(=O)(c1ccccc1)C1(CCCN2CCC(c3ccccc3)C2)CCC1` (racemic), the Ki in assay [1] came out at 9 nM.
On the same count and under the same terms, the same measure for `CN1CCN(CCCC2(S(=O)(=O)c3ccccc3)CCC2)CC1`: 5800 nM.
As to `O=S(=O)(c1ccccc1)C1(CCCN2CCc3ccccc3C2)CCC1`, the Ki in assay [1] is 8 nM; in assay [2] it was 35 nM; in assay [3], 65 nM. In assay [4], this molecule gave an Activity of 5%.
In turn, `O=S(=O)(c1ccccc1)C1(CCN2CCC(c3ccccc3)C2)CCC1` (racemic) registered a Ki in assay [1] of 53 nM.
For the molecule `CC(C)(CCCN1CC[C@@H]2CCCC[C@H]2C1)S(=O)(=O)c1ccccc1` (racemic), the Ki in assay [1] was 8 nM; in assay [2] it was 1500 nM; in assay [3], 2000 nM; in assay [5] it was > 7000 nM; at D(2) dopamine receptor it was 900 nM; in assay [6], 3900 nM⁻¹. In addition, the Ki in assay [7] is > 4000 nM. The molecule further gave an Activity in assay [4] of 83%.
On to `O=S(=O)(CCCCN1CCC2CCCCC2C1)c1ccccc1` (racemic), for which the Ki in assay [1] is 96 nM.
`O=S(=O)(c1ccccc1)C1(CCCN2CCC3CCCCC3C2)CCC1` (racemic): the Ki in assay [1] came out at 6 nM; in assay [2], 210 nM; in assay [3], 570 nM. For the same molecule, the Activity in assay [4] stood at 39%.
As to `CN(C)CCCC1(S(=O)(=O)c2ccccc2)CCC1`, in assay [1], the Ki is > 7000 nM.
Same read-out and setting: in the case of `CCOC(=O)[C@H]1CCCN(CCCC(C)(C)S(=O)(=O)c2ccccc2)C1` it was 455 nM.
In the case of `CCOC(=O)[C@@H]1CCCN(CCCC(C)(C)S(=O)(=O)c2ccccc2)C1`, the Ki in assay [1] was 24 nM; in assay [2], 2400 nM; in assay [3], 1870 nM; in assay [5] it was > 7000 nM; at D(2) dopamine receptor, 710 nM; in assay [6], > 4000 nM⁻¹. In assay [4], this molecule showed an Activity of 0%.
`O=S(=O)(c1ccccc1)C1(CCCN2CCC(c3ccccc3)CC2)CCC1` came in with a Ki in assay [1] of 26 nM.
For the molecule `CC(C)(CCCN1CCCC(C(F)(F)F)C1)S(=O)(=O)c1ccccc1` (racemic), the Ki was 54 nM in assay [1]; > 7000 nM in assay [2]; > 2000 nM in assay [3]; > 7000 nM in assay [5]; > 1000 nM at D(2) dopamine receptor; > 4000 nM⁻¹ in assay [6]. The Ki in assay [7] was > 5000 nM. The same molecule displayed an Activity in assay [4] of 0%.
Take `O=S(=O)(c1ccccc1)C1(CCCN2CCCCC2)CCC1`: in assay [1], the Ki turned out to be 2700 nM.
Turning to `CC(C)(CCCN1CCCC(c2ccccc2)C1)S(=O)(=O)c1ccccc1` (racemic), the Ki in assay [1] turned out to be 7 nM; in assay [2], 400 nM; in assay [3], 1800 nM; in assay [5], 7700 nM; on D(2) dopamine receptor it was 220 nM; in assay [6], 540 nM⁻¹. Also, in assay [7], the Ki is > 5000 nM. This molecule displayed an Activity in assay [4] of 0%.
In assay [1], `O=S(=O)(c1ccccc1)C1(CCCCN2CCC(c3ccccc3)C2)CCC1` (racemic) came in with a Ki of 13 nM.
Same read-out and setting: the same measure for `O=S(=O)(c1ccccc1)C1(CCCN2CCN(c3ccccc3)CC2)CCC1`: 22 nM.
